{"source": "paper PMC8956739", "about": "“A synthetic lipopeptide targeting top-priority multidrug-resistant Gram-negative pathogens” (Nature Communications, 2022)", "key": {"A. baumannii AB5075": {"system": "A. baumannii AB5075", "assay": "Transcriptomic analysis (RNA-Seq) of bacteria", "type": "cell-based, Acinetobacter baumannii", "conditions": "for logFC (Differential gene expression for all genes), Geneid ABUW_RS00020 / logFC (Fold change), gene ABUW_RS00010 / logFC (Fold change), gene ABUW_RS00030 / logFC (Fold change), gene ABUW_RS00035 / logFC (Fold change), gene recF (ABUW_RS00015) / 4h_1h logFC (Differential gene expression for all genes), Geneid ABUW_RS00005 / 4h_1h logFC (Differential gene expression for all genes), Geneid ABUW_RS00010 / 4h_1h logFC (Differential gene expression for all genes), Geneid ABUW_RS00015 / 4h_1h logFC (Differential gene expression for all genes), Geneid ABUW_RS00020 / logFC (Differential gene expression for all genes), Geneid ABUW_RS00005: RNA-Seq A. baumannii AB5075; for log2FC, gene ABUW_RS01945 (acyl-CoA thioesterase II) / log2FC, gene ABUW_RS02545 (acyl-CoA thioesterase) / log2FC, gene ABUW_RS05045 (acyl-CoA thioesterase) / log2FC, gene ABUW_RS17575 (acyl-CoA thioesterase): pathway Fatty Acid and Lipid Degradation; for 4h_1h logFC (Differential gene expression for all genes), Geneid ABUW_RS00005 / 4h_1h logFC (Differential gene expression for all genes), Geneid ABUW_RS00010 / 4h_1h logFC (Differential gene expression for all genes), Geneid ABUW_RS00015 / 4h_1h logFC (Differential gene expression for all genes), Geneid ABUW_RS00020: 4h vs 1h"}, "in vitro": {"assay": "in vitro", "type": "cell-based, human", "conditions": "human, wild-type HK-2 cells (kidney proximal tubular), Cell viability, WT"}, "wild-type HK-2 cells": {"system": "wild-type HK-2 cells", "assay": "in vitro", "type": "cell-based, human"}}, "note": "Residues, ends and D or L forms follow the SMILES beside them.", "data": [{"smiles": "CC[C@@H]1NC(=O)[C@@H](CC(C)C)NC(=O)[C@H](CCN)NC(=O)[C@@H](NC(=O)[C@H](CN)NC(=O)[C@@H](NC(=O)[C@H](CCN)NC(=O)c2ccc(Cl)cc2Cl)[C@@H](C)O)CCNC(=O)[C@H]([C@@H](C)O)NC(=O)[C@H](CCN)NC(=O)[C@H](CCN)NC1=O", "note": "[Lipopeptide F365] (HELM PEPTIDE1{[O=C(c1ccc(Cl)cc1Cl)[*:2]].[Dab].T.[NC[C@H](N[*:1])C(=O)[*:2]].[Dab].[Dab].[dL].[Abu].[Dab].[Dab].T}$PEPTIDE1,PEPTIDE1,5:R3-11:R2$$$V2.0)", "values": [{"measurement": "logFC (Differential gene expression for all genes), Geneid ABUW_RS00020", "setting": "A. baumannii AB5075; H vs Cont, 4h", "result": 0.1404}, {"measurement": "logFC (Fold change), gene ABUW_RS00010", "setting": "A. baumannii AB5075; H vs Cont, 4h", "result": 1.271}, {"measurement": "logFC (Fold change), gene ABUW_RS00030", "setting": "A. baumannii AB5075; H vs Cont, 4h", "result": -1.908}, {"measurement": "logFC (Fold change), gene ABUW_RS00035", "setting": "A. baumannii AB5075; H vs Cont, 4h", "result": 1.362}, {"measurement": "logFC (Fold change), gene recF (ABUW_RS00015)", "setting": "A. baumannii AB5075; H vs Cont, 4h", "result": -0.8325}, {"measurement": "log2FC, gene ABUW_RS01945 (acyl-CoA thioesterase II)", "setting": "A. baumannii AB5075; H vs Cont, 4h", "result": -0.9573}, {"measurement": "log2FC, gene ABUW_RS02545 (acyl-CoA thioesterase)", "setting": "A. baumannii AB5075; H vs Cont, 4h", "result": 1.303}, {"measurement": "log2FC, gene ABUW_RS05045 (acyl-CoA thioesterase)", "setting": "A. baumannii AB5075; H vs Cont, 4h", "result": 0.7194}, {"measurement": "log2FC, gene ABUW_RS17575 (acyl-CoA thioesterase)", "setting": "A. baumannii AB5075; H vs Cont, 4h", "result": -2.7329}, {"measurement": "4h_1h logFC (Differential gene expression for all genes), Geneid ABUW_RS00005", "setting": "A. baumannii AB5075; H", "result": -0.4851}, {"measurement": "4h_1h logFC (Differential gene expression for all genes), Geneid ABUW_RS00010", "setting": "A. baumannii AB5075; H", "result": 0.8595}, {"measurement": "4h_1h logFC (Differential gene expression for all genes), Geneid ABUW_RS00015", "setting": "A. baumannii AB5075; H", "result": -1.098}, {"measurement": "4h_1h logFC (Differential gene expression for all genes), Geneid ABUW_RS00020", "setting": "A. baumannii AB5075; H", "result": 0.6821}, {"measurement": "logFC (Differential gene expression for all genes), Geneid ABUW_RS00005", "setting": "A. baumannii AB5075; L vs Cont, 1h", "result": 0.07464}, {"measurement": "logFC (Differential gene expression for all genes), Geneid ABUW_RS00020", "setting": "A. baumannii AB5075; L vs Cont, 1h", "result": -0.04639}, {"measurement": "logFC (Fold change), gene ABUW_RS00010", "setting": "A. baumannii AB5075; L vs Cont, 1h", "result": 0.04206}, {"measurement": "logFC (Fold change), gene ABUW_RS00030", "setting": "A. baumannii AB5075; L vs Cont, 1h", "result": 0.5072}, {"measurement": "logFC (Fold change), gene ABUW_RS00035", "setting": "A. baumannii AB5075; L vs Cont, 1h", "result": -0.01907}, {"measurement": "logFC (Fold change), gene recF (ABUW_RS00015)", "setting": "A. baumannii AB5075; L vs Cont, 1h", "result": 0.05956}, {"measurement": "log2FC, gene ABUW_RS01945 (acyl-CoA thioesterase II)", "setting": "A. baumannii AB5075; L vs Cont, 1h", "result": 0.4901}, {"measurement": "log2FC, gene ABUW_RS02545 (acyl-CoA thioesterase)", "setting": "A. baumannii AB5075; L vs Cont, 1h", "result": -0.0862}, {"measurement": "log2FC, gene ABUW_RS05045 (acyl-CoA thioesterase)", "setting": "A. baumannii AB5075; L vs Cont, 1h", "result": -0.2681}, {"measurement": "log2FC, gene ABUW_RS17575 (acyl-CoA thioesterase)", "setting": "A. baumannii AB5075; L vs Cont, 1h", "result": -0.08172}, {"measurement": "logFC (Differential gene expression for all genes), Geneid ABUW_RS00005", "setting": "A. baumannii AB5075; L vs Cont, 4h", "result": 0.1571}, {"measurement": "logFC (Differential gene expression for all genes), Geneid ABUW_RS00020", "setting": "A. baumannii AB5075; L vs Cont, 4h", "result": -0.1135}, {"measurement": "logFC (Fold change), gene ABUW_RS00010", "setting": "A. baumannii AB5075; L vs Cont, 4h", "result": 0.2996}, {"measurement": "logFC (Fold change), gene ABUW_RS00030", "setting": "A. baumannii AB5075; L vs Cont, 4h", "result": 0.4017}, {"measurement": "logFC (Fold change), gene ABUW_RS00035", "setting": "A. baumannii AB5075; L vs Cont, 4h", "result": 0.1258}, {"measurement": "logFC (Fold change), gene recF (ABUW_RS00015)", "setting": "A. baumannii AB5075; L vs Cont, 4h", "result": -0.3068}, {"measurement": "log2FC, gene ABUW_RS01945 (acyl-CoA thioesterase II)", "setting": "A. baumannii AB5075; L vs Cont, 4h", "result": -0.2225}, {"measurement": "log2FC, gene ABUW_RS02545 (acyl-CoA thioesterase)", "setting": "A. baumannii AB5075; L vs Cont, 4h", "result": -0.9002}, {"measurement": "log2FC, gene ABUW_RS05045 (acyl-CoA thioesterase)", "setting": "A. baumannii AB5075; L vs Cont, 4h", "result": 0.02763}, {"measurement": "log2FC, gene ABUW_RS17575 (acyl-CoA thioesterase)", "setting": "A. baumannii AB5075; L vs Cont, 4h", "result": -0.0188}, {"measurement": "4h_1h logFC (Differential gene expression for all genes), Geneid ABUW_RS00005", "setting": "A. baumannii AB5075; L", "result": -0.03686}, {"measurement": "4h_1h logFC (Differential gene expression for all genes), Geneid ABUW_RS00010", "setting": "A. baumannii AB5075; L", "result": -0.6141}, {"measurement": "4h_1h logFC (Differential gene expression for all genes), Geneid ABUW_RS00015", "setting": "A. baumannii AB5075; L", "result": -0.239}, {"measurement": "4h_1h logFC (Differential gene expression for all genes), Geneid ABUW_RS00020", "setting": "A. baumannii AB5075; L", "result": -0.06215}, {"measurement": "viability at 24 h", "setting": "in vitro; Rep1", "result": 96.4, "unit": "%"}, {"measurement": "viability at 24 h", "setting": "in vitro; Rep2", "result": 95.4, "unit": "%"}, {"measurement": "viability at 24 h", "setting": "in vitro; Rep4", "result": 95.1, "unit": "%"}, {"measurement": "effect on cell viability", "setting": "wild-type HK-2 cells", "result": "no effect on cell viability"}]}]}
